In paper PMC9029089, “1,5-Disubstituted Acylated 2-Amino-4,5-dihydroimidazoles as a New Class of Retinoic Acid Receptor–Related Orphan Receptor (ROR) Inhibitors” (International Journal of Molecular Sciences, 2022):

What follows are compounds tested against T1, RORγ (Mus musculus, UniProt P51450) (assay: Gal4-RORγ-LBD UAS-luciferase reporter assay in TRex-CHO-K1 cells (doxycycline-stimulated)). Conditions: individual controls 1295.201-307, 5 μg/ml, triplicate.
T1 construct: mRORγ (Pro-261-end); expressed in transfected cells
T1 sequence (P51450 261-516 limits assumed): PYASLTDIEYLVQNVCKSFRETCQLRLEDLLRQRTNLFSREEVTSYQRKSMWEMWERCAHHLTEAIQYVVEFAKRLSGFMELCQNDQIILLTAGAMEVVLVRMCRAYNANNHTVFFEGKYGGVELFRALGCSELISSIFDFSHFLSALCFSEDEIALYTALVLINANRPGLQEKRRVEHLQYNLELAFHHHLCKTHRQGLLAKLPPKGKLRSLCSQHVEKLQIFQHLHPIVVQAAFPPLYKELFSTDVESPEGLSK
Format: cell-based
Excerpt: The Gal4-DBD-ROR-LBD fusion proteins were subcloned in the pcDNA4/TO expression vector (Thermo Scientific) and transfected into TRex-CHO-K1 cells (Thermo Scientific) for tetracycline-controlled expression of the corresponding ROR proteins. Transfected cells were selected with hygromycin and Zeocin and individual clones for each of the Gal4-RORγ, Gal4-RORα, and Gal4-RORβ cell lines were isolated using a standard serial dilution protocol. Clones with the highest doxycycline-dependent stimulation of luciferase activity were selected for all functional experiments.
For screening FIU libraries, cells were resuspended in Ham’s F-12 assay medium containing 2% charcoal-treated FBS and no selection drugs. […] Cells were allowed to attach for 2 h, followed by compound treatment and stimulation with 20 ng/mL doxycycline for an additional 16–20 h. Appropriate solvent controls, negative controls with no doxycycline, and blanks with no cells were included in every plate. Prior to measuring luciferase activity, 6 µL of 0.15 mg/mL resazurin (Cayman Chemical) in PBS were added and cells were incubated for 1 h at 37 °C. Fluorescence intensity was detected at 545 nm excitation/590 nm emission using a CLARIOstar reader (BMGLabtech) as a measure of cell viability, to identify any potential cytotoxic effect of test compounds and mixtures.
Luminescence was normalized by the fluorescence intensity and the percentage of inhibition was calculated with respect to control cells stimulated with doxycycline in the presence of solvent control (0.1% DMF). All primary screens with individual compounds were performed in triplicate with a final concentration of 5 µg/mL. […] IC50 values were calculated using GraphPrism (GraphPad software).

Compared with `O=C(Cc1ccccc1)NC1=NC[C@H](Cc2ccccc2)N1CCCC1CCCC1` [1295.267], `O=C(CCC1CCCC1)NC1=NC[C@H](Cc2ccccc2)N1CCc1ccccc1` [1295.304] is lower in “% Inhibition RORγ 5 μg/ml” value: 56.2% for the first, 45.5% for the second.

Going from `Cc1cccc(CC(=O)NC2=NC[C@H](Cc3ccccc3)N2CCc2ccccc2)c1` [1295.275] to `O=C(Cc1cccc(F)c1)NC1=NC[C@H](Cc2ccccc2)N1CCc1ccccc1` [1295.276], the “% Inhibition RORγ 5 μg/ml” value rises from 60.7% to 104.2%.

Compared with `O=C(Cc1cccc(Br)c1)NC1=NC[C@H](Cc2ccccc2)N1CCc1ccccc1` [1295.277], `COc1cccc(CC(=O)NC2=NC[C@H](Cc3ccccc3)N2CCc2ccccc2)c1` [1295.279] is lower in “% Inhibition RORγ 5 μg/ml” value: 97.6% for the first, 75.2% for the second.

Compared with `O=C(Cc1ccc(F)cc1)NC1=NC[C@H](Cc2ccccc2)N1CCc1ccccc1` [1295.278], `O=C(Cc1ccc(Br)cc1)NC1=NC[C@H](Cc2ccccc2)N1CCc1ccccc1` [1295.280] is higher in “% Inhibition RORγ 5 μg/ml” value: 29.8% for the first, 42.0% for the second.

Going from `COc1ccc(CC(=O)NC2=NC[C@H](Cc3ccccc3)N2CCc2ccccc2)cc1` [1295.281] to `CCOc1ccc(CC(=O)NC2=NC[C@H](Cc3ccccc3)N2CCc2ccccc2)cc1` [1295.282], the “% Inhibition RORγ 5 μg/ml” value falls from 52.6% to -2.3%.

First: COc1ccc(CCC(=O)NC2=NC[C@H](Cc3ccccc3)N2CCc2ccccc2)cc1OC [1295.284]
Second: COc1ccc(CC(=O)NC2=NC[C@H](Cc3ccccc3)N2CCc2ccccc2)cc1OC [1295.287]
The “% Inhibition RORγ 5 μg/ml” value of the first is lower: 34.0% for the first, 54.7% for the second.

Going from `O=C(Cc1ccc(-c2ccccc2)cc1)NC1=NC[C@H](Cc2ccccc2)N1CCc1ccccc1` [1295.285] to `O=C(Cc1ccccc1)NC1=NC[C@H](Cc2ccccc2)N1CCc1ccccc1` [1295.291], the “% Inhibition RORγ 5 μg/ml” value falls from 11.1% to 5.6%.

Going from `Cc1cccc(C(=O)NC2=NC[C@H](Cc3ccccc3)N2CCc2ccccc2)c1` [1295.288] to `CC(=O)NC1=NC[C@H](Cc2ccccc2)N1CCc1ccccc1` [1295.301], the “% Inhibition RORγ 5 μg/ml” value falls from 59.9% to 15.4%.

Going from `O=C(CCCc1ccccc1)NC1=NC[C@H](Cc2ccccc2)N1CCc1ccccc1` [1295.290] to `CCCC(=O)NC1=NC[C@H](Cc2ccccc2)N1CCc1ccccc1` [1295.293], the “% Inhibition RORγ 5 μg/ml” value falls from 60.2% to 37.4%.

Compared with `CCc1ccc(-c2ccc(C(=O)NC3=NC[C@H](Cc4ccccc4)N3CCc3ccccc3)cc2)cc1` [1295.292], `CC(C)C(=O)NC1=NC[C@H](Cc2ccccc2)N1CCc1ccccc1` [1295.295] is lower in “% Inhibition RORγ 5 μg/ml” value: 48.3% for the first, 31.3% for the second.

Going from `CCCCCCC(=O)NC1=NC[C@H](Cc2ccccc2)N1CCc1ccccc1` [1295.294] to `CC(C)CCC(=O)NC1=NC[C@H](Cc2ccccc2)N1CCc1ccccc1` [1295.297], the “% Inhibition RORγ 5 μg/ml” value rises from 44.3% to 62.2%.

Compared with `O=C(NC1=NC[C@H](Cc2ccccc2)N1CCc1ccccc1)C1CCC1` [1295.302], `O=C(NC1=NC[C@H](Cc2ccccc2)N1CCc1ccccc1)C1CCCC1` [1295.303] is lower in “% Inhibition RORγ 5 μg/ml” value: 24.7% for the first, 3.3% for the second.

What follows are compounds tested against T1, RORγ in the same assay as above. Conditions: library 2520, RORγ cells.
Format: cell-based

Going from `COc1ccc(CC(=O)NC2=NCC(Cc3ccc4ccccc4c3)N2CCC2CC3CCC2C3)cc1` (mixture of isomers) [2520.02] to `COc1ccc(CC(=O)NC2=NCC(Cc3ccccc3)N2CCC2CC3CCC2C3)cc1` (mixture of isomers) [2520.26], the “% Inhibition at 4 μM (N=3)” value rises from -33.8% to 40.8%.

Going from `CCC(C(=O)NC1=NCC(Cc2ccc3ccccc3c2)N1CC1CCCCC1)c1ccccc1` (mixture of isomers) [2520.03] to `CC(C)C(=O)NC1=NC[C@H](Cc2ccc3ccccc3c2)N1CC1CCCCC1` [2520.12], the “% Inhibition at 4 μM (N=3)” value rises from -31.8% to 30.4%.

First: CC(C)C(=O)NC1=NCC(Cc2ccc3ccccc3c2)N1CCC(C)c1ccccc1 (mixture of isomers) [2520.04]
Second: CCC(C(=O)NC1=NCC(Cc2ccc3ccccc3c2)N1CCC(C)c1ccccc1)c1ccccc1 (mixture of isomers) [2520.07]
The “% Inhibition at 4 μM (N=3)” value of the first is lower: -40.8% for the first, -32.2% for the second.

Going from `COc1ccc(CC(=O)NC2=NCC(Cc3ccc4ccccc4c3)N2CCC(C)c2ccccc2)cc1` (mixture of isomers) [2520.10] to `COc1ccc(CC(=O)NC2=NCC(Cc3ccccc3)N2CCC(C)c2ccccc2)cc1` (mixture of isomers) [2520.34], the “% Inhibition at 4 μM (N=3)” value rises from -7.3% to 34.4%.

Going from `CCC(C)C1CN=C(NC(=O)Cc2ccc(OC)cc2)N1CCC1CC2CCC1C2` (mixture of isomers) [2520.14] to `CCOc1ccc(CC2CN=C(NC(=O)C(C)C)N2CCC2CC3CCC2C3)cc1` (mixture of isomers) [2520.44], the “% Inhibition at 4 μM (N=3)” value falls from 43.0% to -20.0%.

Going from `CCC(C)C1CN=C(NC(=O)C(C)C)N1CCC1CC2CCC1C2` (mixture of isomers) [2520.20] to `CCC(C(=O)NC1=NCC(C(C)CC)N1CCC1CC2CCC1C2)c1ccccc1` (mixture of isomers) [2520.23], the “% Inhibition at 4 μM (N=3)” value rises from 13.3% to 35.9%.

Going from `CC(C)C(=O)NC1=NCC(Cc2ccccc2)N1CCC1CC2CCC1C2` (mixture of isomers) [2520.32] to `CCC(C(=O)NC1=NCC(Cc2ccccc2)N1CCC1CC2CCC1C2)c1ccccc1` (mixture of isomers) [2520.35], the “% Inhibition at 4 μM (N=3)” value falls from 36.0% to -21.7%.

Going from `CCOc1ccc(CC2CN=C(NC(=O)Cc3ccc(OC)cc3)N2CCC2CC3CCC2C3)cc1` (mixture of isomers) [2520.38] to `COc1ccc(CC(=O)NC2=NC[C@H](Cc3ccccc3)N2CC2CCCCC2)cc1` [2520.30], the “% Inhibition at 4 μM (N=3)” value rises from -22.6% to -4.8%.

Compared with `CCOc1ccc(CC2CN=C(NC(=O)C(C)C)N2CCC(C)c2ccccc2)cc1` (mixture of isomers) [2520.40], `CCOc1ccc(CC2CN=C(NC(=O)C(CC)c3ccccc3)N2CCC(C)c2ccccc2)cc1` (mixture of isomers) [2520.43] is higher in “% Inhibition at 4 μM (N=3)” value: -8.1% for the first, -5.4% for the second.

First: COc1ccc(CC(=O)NC2=NC[C@H](Cc3ccc4ccccc4c3)N2CC2CCCCC2)cc1 [2520.06]
Second: CC[C@H](C)[C@H]1CN=C(NC(=O)Cc2ccc(OC)cc2)N1CC1CCCCC1 [2520.18]
The “% Inhibition at 4 μM (N=3)” value of the first is lower: -56.4% for the first, 26.2% for the second.

With `CC(C)C(=O)NC1=NC[C@H](Cc2ccccc2)N1CC1CCCCC1` [2520.36] the “% Inhibition at 4 μM (N=3)” value was -5.4%.
